Results: patent US20180303101A1, “METHOD OF IMPROVING GRASS QUALITY” (priority 2004, published 2018)

Key:
Format in all cases: in vivo
[1] = test system: Penncross creeping bentgrass; assay: Tiller density at high temperature treatment (Example 1)
Text: (§1) The following test methods were used to compare the effectiveness of a phthalocyanine composition according to the invention with known compositions. The following compositions were used in the experiments: Pigment Green 7 obtained from Sun Chemical Corporation as the water-dispersible product SUN T-64-1660 (containing 45 to 55 wt. % of Pigment Green 7) was used alone. A mixture of Pigment Green 7 and fosetyl-al was used as the commercially available product Chipco® Signature™ fungicide from Bayer Environmental Science, Montvale, N.J. The compound fosetyl-al was used as Chipco® Aliette® WDG fungicide available from Bayer Environmental Science, Montvale N.J.
(§2) Seeds of “Penncross” creeping bentgrass were sown in polyvinyl chloride (PVC) tubes (10 cm in diameter and 20 cm in length) filled with coarse sand. Plants were kept in a growth chamber for 90 days before treatment stated to allow root and canopy establishment. The daily temperature in the growth chamber was 20/16° C., the photosynthetic photon flux density was 400 μmol m−2 s−1, and the photoperiod was 12 hours/day. Turf was mowed twice weekly at 4 mm with scissors, irrigated every other day until there was free drainage from the bottom of tubes, and fertilized weekly with 40 ml full-strength Hoagland's nutrient solution (Hoagland and Arnon, 1950). Insecticide was applied to kill whitefly when necessary. […]

[2] = test system: creeping bentgrass (variety Penncross) turf; assay: Bentgrass color rating after foliar spray (Example 2); settings: 6 weeks after treatment; 6.8, 13.9 and 20.4 grams per 1000 sq. ft.; analysis of variance
Text: (§3) Pigment Green 7 was suspended in water and applied as a foliar spray to creeping bentgrass (variety Penncross) turf with a pressurized sprayer at a spray volume of 1.37 gallons of water per 1000 sq. ft. (ca. 560 l/ha). Pigment Green 7 was applied at rates of 6.8, 13.9, and 20.4 grams per 1000 sq. ft. (0.73, 1.5, and 2.2 kg/ha, respectively). Each treatment was replicated 4 times. An untreated plot was included and was also replicated four times. The average color of the bentgrass was visually evaluated at 6 weeks after treatment. Color was evaluated on a qualitative scale from 1-9, with 9 being the highest quality and 1 the lowest quality.

[3] = test system: Penncross creeping bentgrass; assay: Shoot growth rate in canopy height at high temperature treatment (Example 1); settings: plants with and without pretreatment
Text: as §1, §2

[4] = test system: Penncross creeping bentgrass; assay: Root mortality at high temperature treatment (Example 1); settings: plants with or without pretreatment
Text: as §1
Seeds of “Penncross” creeping bentgrass were sown in polyvinyl chloride (PVC) tubes (10 cm in diameter and 20 cm in length) filled with coarse sand. Plants were kept in a growth chamber for 90 days before treatment stated to allow root and canopy establishment. The daily temperature in the growth chamber was 20/16° C., the photosynthetic photon flux density was 400 μmol m−2 s−1, and the photoperiod was 12 hours/day. […]
Root mortality was measured using the method of Knievel (1973) with modification.
Samples of 0.5 g clean fresh roots were incubated with 10 mL 0.6% 2,3,5-triphenyltetrazolium chloride (in 0.05 M phosphate buffer, pH 7.4) for 24 hours in the dark at 30° C. […] Absorbance at 490 nm was used to determine root mortality.

[5] = test system: creeping bentgrass (variety Penncross) turf; assay: Bentgrass color rating after foliar spray (Example 4); settings: 6 weeks after treatment; iprodione 4 oz/1000 sq. ft.; Pigment Green 7 6.8 or 13.6 g/1000 sq. ft. in combination, 13.6 g alone
Text: as §3
The procedure of Example 2 was repeated using iprodione fungicide (in the form of 26 GT brand iprodione fungicide) at 4 oz/1000 sq. ft. (ca. 1.3 mL/m2), iprodione at 4 oz/1000 sq. ft. (ca. 1.3 mL/m2) plus Pigment Green 7 at 6.8 g/1000 sq. ft. (0.73 kg/ha), iprodione at 4 oz/1000 sq. ft. plus Pigment Green 7 at 13.6 g/1000 sq. ft. (1.5 kg/ha), and Pigment Green 7 at 13.6 g/1000 sq. ft. (1.5 kg/ha). At 6 weeks after treatment, the color ratings were as follows.

[6] = test system: Penncross creeping bentgrass; assay: Chlorophyll content at high temperature treatment (Example 1)
Text: as §1
(§4) Seeds of “Penncross” creeping bentgrass were sown in polyvinyl chloride (PVC) tubes (10 cm in diameter and 20 cm in length) filled with coarse sand. […]
(§5) Chlorophyll and carotenoids were extracted by soaking 50 mg fresh shoots in 20 ml dimethyl sulfoxide (DMSO) in the dark for 72 hours. Absorbance of each extractant at 663 nm, 645 nm, and 470 nm was used to determine chlorophyll content using the formula of Arnon (1949) and carotenoids content using the formula of Lichtenthaler and Wellburn (1983) Canopy photochemical efficiency was estimated by measuring chlorophyll fluorescence (Fv/Fm) using plant photosynthesis efficiency analyzer (available from ADC Bioscientific Limited, Herts, England).

[7] = test system: Penncross creeping bentgrass; assay: Turf quality visual rating at high temperature treatment (Example 1); settings: high temperature 35/30° C., biweekly foliar application
Text: as §1, §2

[8] = test system: Penncross creeping bentgrass; assay: Final root and canopy biomass at high temperature treatment (Example 1); settings: plants with and without pretreatment, end of experiment
Text: as §1, §2

[9] = test system: Penncross creeping bentgrass; assay: Canopy photochemical efficiency (Fv/Fm) at high temperature treatment (Example 1); settings: plants with and without pretreatment
Text: as §1, §4, §5

## Pigment Green 7
[1]
  Tiller density, difference among applications: no significant difference
[2]
  Color rating (visual, scale 1-9) versus untreated check: significantly different than the untreated check
[3]
  Shoot growth rate in canopy height: higher with application of Signature fungicide and Pigment Green 7 than with application of Aliette fungicide and water
[4]
  Root mortality: lower root mortality than application of Signature fungicide and Aliette fungicide
[5]
  Color rating versus untreated check: significantly greener than the untreated
[6]; plants with pretreatment
  Chlorophyll content (fresh weight basis): highest
[6]; plants without pretreatment
  Chlorophyll content (fresh weight basis): higher with application of Signature fungicide and Pigment Green 7 than with application of Aliette fungicide
[7]; plants with pretreatment (sprayed 4 weeks before heat)
  Turf quality (visual, scale 0 to 9): highest
[7]; plants without pretreatment
  Turf quality (visual, scale 0 to 9): higher turf quality than applications of Signature fungicide, Aliette fungicide, and water
[8]
  Canopy biomass (dry weight): higher with application of Signature fungicide and Pigment Green 7 than with application of Aliette fungicide and water
  Roots biomass (dry weight): higher with application of Signature fungicide and Pigment Green 7 than with application of Aliette fungicide and water
[9]
  Photochemical efficiency (Fv/Fm): highest
